Measurements taken from patent US6677371B1, “4-oxybenzopyran derivative” (Nissan Chemical Industries, Ltd., priority 1999, dated 2004).

melting point: 123.5 to 127 °C
Compound: CC(=O)Nc1cc2c(cc1[N+](=O)[O-])OC(C)(C)[C@@H](O)[C@@H]2OCCc1ccccc1 (relative stereo) [Synthesis example 2, Trans-6-acetylamino-3,4-dihydro-2,2-dimethyl-7-nitro-4-(2-phenylethoxy)-2H-1-benzopyran-3-ol]
